The values below come from patent publication US20210267948A1, “TREATMENT OF CANCER” (CITY OF HOPE, priority 2017, published 2021).

Each structure is given as a SMILES string.

The test system of one series is PARP1. As to the kind of experiment: PARP1 protein expression by Western blot. It counts as cell-based, human. Particulars: HCC1937 cells irrespective of BRCA1 status, 4 h. As for the experimental part: FIGS. 3A-3B. […] (FIG. 3A): the effect of COH29 on PARP1 activity in isogenic pairs of breast (HCC1937) and ovarian (UWB1.289) cancer cell lines expressing mutant or wt BRCA1 (wt=+BRCA1 in each case) was assessed in duplicate using procedures described in Materials & Methods; FIG. 3B: the effect of COH29 on PARP1 protein expression in the isogenic HCC1937/HCC1937+BRCA1 cell lines was assessed by Western blot analysis using anti-human PARP1 antibody as the primary antibody. Loading control is β-actin.
For subcellular fractionation, cells were trypsinized and washed with cold PBS solution twice. […] Following centrifugation at 1,000 g for 5 min, the supernatant was collected (i.e., cytoplasmic fraction) and pellets were washed with the same buffer twice. The washed samples were extracted for 40 min on ice with fractionation buffer containing 0.5% NP-40 for nuclear fraction. All the samples were sonicated and clarified by centrifugation at 16,000 g for 15 min. Protein concentrations of all fractions were determined with Bio-Rad Protein Assay (Bio-Rad Laboratories, Hercules, Calif.). Immunoblotting was performed as described previously (21,22). Briefly, equal amounts of boiled protein samples were subjected to SDS-polyacrylamide gel electrophoresis (PAGE) and transferred onto nitrocellulose membranes (Bio-Rad Laboratories). Membranes were blocked for 1 hour in 3% BSA in Tris buffered saline containing 0.05% Tween 20 (TBST) and incubated for 1 hour with primary antibody (1:500 or 1:1000) diluted in TBST containing 1% BSA. After two washes with TBST, membranes were incubated for 1 hour with horseradish peroxidase-conjugated secondary Abs (1:3000 dilution) at room temperature. The immunoblots were visualized on film with the West-Q chemi-luminescence kit (GenDEPOT, Barker, Tex.).

The test system of the next series is OV90. As to the kind of experiment: MTT cytotoxicity assay, OV90. Particulars: OV90, wild-type BRCA1, 72 h; read-out: IC50, mean ± SEM. It counts as cell-based, human. As for the experimental part: (§1) The MTT cytotoxicity assay was performed by incubating with MTT and monitoring the MTT formazan formed by viable cells with a microplate reader at a wavelength of 560 nm; the survival ratio was determined using the formula: (Atest−Ablank)/(Acontrol−Ablank)×100%. The cytotoxicity was determined in 96-well plates using the semiautomatic fluorescence-based Digital Imaging Microscopy System (DIMSCAN). DIMSCAN uses digital imaging microscopy to quantify viable cells, which selectively accumulate FDA (fluorescein diacetate; Alfa Aesar, Ward Hill, Mass.). DIMSCAN is capable of measuring cytotoxicity over a 4 log dynamic range by quantifying total fluorescence per well (which is proportional to the number of viable cells) after elimination of the background fluorescence by digital thresholding and eosin Y (Mallinckrodt Baker, Center Valley, Pa.) quenching. Cells were seeded into 96-well plates in 100 μL of complete medium at 2,000 to 5,000 cells per well, depending on cell line growth rate. After overnight incubation, test compound was added to each well at various concentrations in 50 μL of culture medium. […] Total fluorescence per well was then measured using DIMSCAN, and the results were expressed as the ratio of the fluorescence in treated wells to the fluorescence in untreated wells (survival fraction).

Another series deals with KB-7D. As to the kind of experiment: Cytotoxicity assay, KB-7D. It counts as cell-based, human. Particulars: cisplatin-resistant, read-out: IC50, mean ± SEM. As for the experimental part:
as §1

A further series relates to OVCAR-4. As to the kind of experiment: Cytotoxicity assay, OVCAR-4. The series is classed as cell-based, human. Particulars: read-out: IC50, mean ± SEM. As for the experimental part:
as §1

Another series concerns KB-Gem. As to the kind of experiment: Cytotoxicity assay, KB-Gem. The series is classed as cell-based, human. Particulars: gemcitabine-resistant, read-out: IC50, mean ± SEM. As for the experimental part:
as §1

The test system of a further series is OVCAR-3. In words: Cytotoxicity assay, OVCAR-3. The series is classed as cell-based, human. Conditions: read-out: IC50, mean ± SEM. As for the experimental part:
as §1

The subject of a further series is HCC1937+BRCA1. In words: Cytotoxicity assay, HCC1937+BRCA1. Particulars: HCC1937 + BRCA1, triple negative, 72 h. It counts as cell-based, human. As for the experimental part: All cell lines were acquired from the American Type Culture Collection (Manassas, Va., USA). Cells were maintained in RPMI 1640 medium (Mediatech) with 10% fetal bovine serum, 2 mM glutamine, and 100 U of penicillin and 100 μg of streptomycin per ml of medium (Sigma) at 37° C. in 5% CO2. To isolate HCC1937+BRCA1 cells, parental HCC1937 cells were transfected with pcDNA3.1 plasmid expressing full-length BRCA1 cDNA. Stable transfectant clones were selected and used for drug sensitivity assays. For stable transfection, cells at 30-40% confluence were incubated overnight with […] of plasmid DNA, using FUGENE® 6 transfectin reagent (Roche Molecular Biochemical, Monza, Italy) according to the manufacturer's instructions. Cells were then selected in puromycin (1 μg/ml) (Invitrogen Life Technologies, La Jolla, Calif., USA). After 20 to 30 days, viable puromycin-resistant colonies from HCC1937 transfections were expanded and screened. The clones that stably expressed puromycin and retained growth potential were assayed for BRCA1 expression by Western blot analysis. The restoration of BRCA1 expression in the puromycin-resistant cDNA/transfectant cells was evaluated by Western blot analysis.
The MTT cytotoxicity assay was performed by incubating with MTT and monitoring the MTT formazan formed by viable cells with a microplate reader at a wavelength of 560 nm; the survival ratio was determined using the formula: (Atest−Ablank)/(Acontrol−Ablank)×100%. The cytotoxicity was determined in 96-well plates using the semiautomatic fluorescence-based Digital Imaging Microscopy System (DIMSCAN). DIMSCAN uses digital imaging microscopy to quantify viable cells, which selectively accumulate FDA (fluorescein diacetate; Alfa Aesar, Ward Hill, Mass.). DIMSCAN is capable of measuring cytotoxicity over a 4 log dynamic range by quantifying total fluorescence per well (which is proportional to the number of viable cells) after elimination of the background fluorescence by digital thresholding and eosin Y (Mallinckrodt Baker, Center Valley, Pa.) quenching. […]

The next series has as its system UWB1.289. In words: MTT cytotoxicity assay, UWB1.289. It counts as cell-based, human. Particulars: UWB1.289, BRCA1-defective, 72 h; read-out: IC50, mean ± SEM. As for the experimental part: as §1
The next series has as its system UWB1.289+BRCA1. As to the kind of experiment: Cytotoxicity assay, UWB1.289+BRCA1. Conditions: UWB1.289 + BRCA1 (WT), 72 h; read-out: IC50, mean ± SEM. It counts as cell-based, human. As for the experimental part:
as §1

The subject of the next series is TOV112D. In words: Cytotoxicity assay, TOV112D. The series is classed as cell-based, human. Particulars: read-out: IC50, mean ± SEM. As for the experimental part:
as §1

The test system of a further series is HCC1937. In words: Cytotoxicity assay, HCC1937. Conditions: HCC1937, BRCA1 mutant, triple negative, 72 h. It counts as cell-based, human. As for the experimental part: All cell lines were acquired from the American Type Culture Collection (Manassas, Va., USA). Cells were maintained in RPMI 1640 medium (Mediatech) with 10% fetal bovine serum, 2 mM glutamine, and 100 U of penicillin and 100 μg of streptomycin per ml of medium (Sigma) at 37° C. in 5% CO2. To isolate HCC1937+BRCA1 cells, parental HCC1937 cells were transfected with pcDNA3.1 plasmid expressing full-length BRCA1 cDNA. Stable transfectant clones were selected and used for drug sensitivity assays. […] The restoration of BRCA1 expression in the puromycin-resistant cDNA/transfectant cells was evaluated by Western blot analysis.
The MTT cytotoxicity assay was performed by incubating with MTT and monitoring the MTT formazan formed by viable cells with a microplate reader at a wavelength of 560 nm; the survival ratio was determined using the formula: (Atest−Ablank)/(Acontrol−Ablank)×100%. The cytotoxicity was determined in 96-well plates using the semiautomatic fluorescence-based Digital Imaging Microscopy System (DIMSCAN). DIMSCAN uses digital imaging microscopy to quantify viable cells, which selectively accumulate FDA (fluorescein diacetate; Alfa Aesar, Ward Hill, Mass.). […] Total fluorescence per well was then measured using DIMSCAN, and the results were expressed as the ratio of the fluorescence in treated wells to the fluorescence in untreated wells (survival fraction).

The subject of a further series is A2780-DDDP. As to the kind of experiment: Cytotoxicity assay, A2780-DDDP. It counts as cell-based, human. Conditions: cisplatin-resistant, read-out: IC50, mean ± SEM. As for the experimental part:
as §1

The next series has as its system SKBR3. In words: Cytotoxicity assay, SKBR3. Conditions: SKBR3, ER− PR(−) HER2+. The series is classed as cell-based, human. As for the experimental part: as §1
For series [1], the system named is wild-type zebrafish embryos. In words: Zebrafish genotoxicity assay. Particulars: HU 0-50 mM. The series is classed as in vivo, Danio rerio. As for the experimental part: The PARP1 activity was determined using the PARP1 Chemiluminescent Assay Kit (BPS Bioscience, San Diego) according to the manufacturer's protocol. Briefly, the ribosylation reaction was carried out with activated DNA in PARP assay buffer using test inhibitor, positive control, substrate control and blank reactions, for 1 hour at 25° C. Detection was by streptavidin-HRP with chemiluminescent substrate A and B read in a luminometer. NZebrafish (Danio rerio) were obtained from zebrafish Core facility of Taipei Medical University and maintained at 28° C. on a 14 h light/10 h dark cycle. Embryos were incubated at 28° C. and different developmental stages were determined as described (25). Wild-type embryos were treated with different concentrations of HU (0, 5, 10, 20, 50 mM) or COH29 (0, 10, 20, 50, 100 μM) at 20 hpf to evaluate the mutagenic effect. Fifteen embryos were treated per well condition. […] Embryos were observed using an Olympus IX70-FLA inverted fluorescence microscope. Images were taken using SPOT digital camera system (Diagnostic Instruments, Sterling Heights, Mich., USA) and assembled with Image) software (26).
To assess the genotoxicity of COH29, wild-type zebrafish embryos were treated from 1 to 7 dpf (day post-fertilization) with a range of doses of COH29 (0-100 μM) and compared to embryos similarly treated with HU (0-50 mM) which is known to cause developmental defects.

For the molecule `C[C@]1(c2nc3c(C(N)=O)cccc3[nH]2)CCCN1` [ABT-888, reference compound], in the series with PARP1, the PARP1 protein level entry was “significant reduction”.

As to `N.N.[Cl][Pt][Cl]` [Cisplatin], the IC50 amounted to 1570 ± 290 nM in the series with OV90; 7500 ± 300 nM with KB-7D; 2250 ± 250 nM in the series on OVCAR-4; 380 ± 30 nM in the series with KB-Gem; 1640 ± 40 nM in the series with OVCAR-3; 2930 ± 550 nM with HCC1937+BRCA1. The IC50 in the series on UWB1.289 came to 1430 ± 870 nM; in the series with UWB1.289+BRCA1 it was 7400 ± 2020 nM; in the series with TOV112D it was 1320 ± 200 nM; in the series with HCC1937, 2460 ± 110 nM; in the series with A2780-DDDP it was 5020 ± 1180 nM; in the series on SKBR3 it was 990 ± 240 nM.

As for `NC(=O)NO` [HU, hydroxyurea, reference compound], the “number of mutant embryos” value in series [1] is given as “dose-dependent increase”. The developmental defects entry in [1] (embryos treated 1 to 7 dpf, COH29 0-100 μM) is “caused defects in eyes and heart by 4 dpf”.
